Data from patent US20140093459A1, “NOVEL COMPOUND” (DSM IP ASSETS B.V., priority 2009, published 2014).

Tests used:
[1] = Reduction of solvent necessary to dissolve solid UV-filter; format: physicochemical
[2] = Solubility of BMDBM or BEMT in C12-15 alkyl benzoate (saturation, HPLC of supernatant); format: physicochemical
[3] = Solubility of BEMT in 1:1 (w/w) mixture C12-15 alkyl benzoate/PG-UVAB1 (dissolving, storage 1 month at RT); format: physicochemical
[4] = Comparative: solubility of BMDBM in 1:1 (w/w) mixture of C12-15 alkyl benzoate and a polymeric or solid UV-filter (HPLC after 1 month at RT)
Excerpt: Where necessary the mixture was centrifuged in order to obtain a clear supernatant.

| Compound | amount of 1:1 (w/w) mixture of PG-UVAB1 and diisopropyl sebacate needed to dissolve 0.5 g BMDBM ([1]; 1:1 (w/w) PG-UVAB1/diisopropyl sebacate) [g] | amount of 1:1 (w/w) mixture of PG-UVAB2 and C12-15 alkyl benzoate necessary to dissolve 0.5 g BMDBM ([1]; 1:1 (w/w) PG-UVAB2/C12-15 alkyl benzoate) [g] | Solubility in C12-15 alkyl benzoate ([2]; C12-15 alkyl benzoate alone (summary table)) [wt.-%] | solubility in the cosmetic solvent C12-15 alkyl benzoate ([2]; C12-15 alkyl benzoate alone, saturation, HPLC of supernatant) [wt.-%] | re-crystallization on storage ([3]; 200 mg BEMT in 800 mg 1:1 C12-15 alkyl benzoate/PG-UVAB1, stored 1 month at RT) | solubility of BEMT in 1:1 (w/w) mixture of C12-15 alkyl benzoate/PG-UVAB1 ([3]; 200 mg BEMT in 800 mg of the mixture, 1 month at RT) | Solubility of BEMT in C12-15 alkyl benzoate/PG-UVAB1 1:1 ([3]; 1:1 mixture with PG-UVAB1) [wt.-%] | Δ solubility related to cosmetic solvent (BEMT) ([3]; 1:1 mixture with PG-UVAB1) | Δ solubility (BEMT) ([3]; 1:1 mixture with PG-UVAB1 versus C12-15 alkyl benzoate alone) | Increase of solubility of BEMT ([3]; BEMT, 1:1 mixture with PG-UVAB1 versus C12-15 alkyl benzoate alone) | Solubility of BMDBM in C12-15 alkyl benzoate/UV-filter 1:1 ([4]; 200 mg BMDBM with 1000 mg of 1:1 (w/w) mixture, supernatant HPLC after 1 month at RT) [wt.-%] | Δ solubility related to cosmetic solvent (BMDBM) ([4]; 1:1 mixture C12-15 alkyl benzoate/UV-filter) [wt.-%] | Δ solubility (BMDBM) ([4]; 1:1 mixture with UV-filter versus C12-15 alkyl benzoate alone) [wt.-%] |
| --- | --- | --- | --- | --- | --- | --- | --- | --- | --- | --- | --- | --- | --- |
| butyl methoxydibenzoylmethane [BMDBM] | 1.4 | 1.5 | – | – | – | – | – | – | – | – | – | – | – |
| CCCCC(CC)COc1ccc(-c2nc(-c3ccc(OC)cc3)nc(-c3ccc(OCC(CC)CCCC)cc3O)n2)c(O)c1 (stereo not shown) [BEMT, bis-ethylhexyloxyphenol methoxyphenyl triazine] | – | – | 13 | 13 | no re-crystallization occurred | at least 20 wt.-% | 20 | +13.5 wt.-% | +7 wt.-% | +54% | 3 | −4 | −11 |
